Patent US10889591B2, “PDE9 inhibitor and use thereof” (Nanjing TransThera Biosciences Co. Ltd., priority 2017, dated 2021)

Assay: Stability in human liver microsome
Conditions: for CLint / k / Original drug residual % at 60 min / T1/2 (min): human liver microsome 0.5 mg protein/mL, compound 1 μM; for k: slope of log remaining amount versus time; for Original drug residual % at 60 min: β-NADPH 1 mM, 37° C.; for half-life at 1 μM: human, liver microsomes

SMILES: N#Cc1c(Nc2ccc(Cl)cc2)c2ccncc2[nH]c1=O [Compound 18, 4-((4-chlorophenyl)amino)-2-oxo-1,2-dihydro-1,7-naphthyridin-3-carbonitrile]
- CLint: 0.1244 mL · min^−1 · mg^−1 proteins
- k: 0.727 min⁻¹
- Original drug residual % at 60 min: 5.19%
- half-life at 1 μM: 0.186 h

SMILES: N#Cc1c(N2CC[C@@H](n3cccn3)C2)c2ccncc2[nH]c1=O [Compound 19, (R)-4-(3-(1H-pyrazol-1-yl)pyrrolidin-1-yl)-2-oxo-1,2-dihydro-1,7-naphthyridin-3-carbonitrile]
- CLint: 0.0012 mL · min^−1 · mg^−1 proteins
- k: 0.191 min⁻¹
- Original drug residual % at 60 min: 93.4%
- half-life at 1 μM: 19.2 h

SMILES: N#Cc1c(N2CCC3(CC2)CC3)c2cc(C(O)CO)ncc2[nH]c1=O (centres unmarked) [Compound 32, 6-(1,2-dihydroxyethyl)-2-oxo-4-(6-azaspiro[2.5]octane-6-yl)-1,2-dihydro-1,7-naphthyridin-3-carbonitrile]
- T1/2 (min): →∞
- k: -0.3760 min⁻¹
- Original drug residual % at 60 min: 99.8%

SMILES: COc1cc2c(N3CCC4(CCC4)CC3)c(C#N)c(=O)[nH]c2cn1 [Compound 66, 6-methoxy-2-oxo-4-(7-azaspiro[3.5]nonane-7-yl)-1,2-dihydro-1,7-naphthyridin-3-carbonitrile]
- k: -0.515 min⁻¹
- Original drug residual % at 60 min: 101%

SMILES: COC1(C)CCN(c2c(C#N)c(=O)[nH]c3cnccc23)CC1 [Compound 81, 4-(4-methoxy-4-methylpiperidin-1-yl)-2-oxo-1,2-dihydro-1,7-naphthyridin-3-carbonitrile]
- CLint: 0.0024 mL · min^−1 · mg^−1 proteins
- k: 0.0012 min⁻¹
- Original drug residual % at 60 min: 94.6%
- half-life at 1 μM: 9.63 h

SMILES: N#Cc1c(N2CCC3(CC2)CC3)c2cc(C(=O)O)ncc2[nH]c1=O [Compound 83, 3-cyano-2-oxo-4-(6-azaspiro[2.5]octane-6-yl)-1,2-dihydro-1,7-naphthyridin-6-carboxylic acid]
- T1/2 (min): →∞
- k: 0.5421 min⁻¹
- Original drug residual % at 60 min: 104.1%

SMILES: COC1(C)CCN(c2c(C#N)c(=O)[nH]c3cnc(C(C)(C)O)cc23)CC1 [Compound 109, 6-(2-hydroxypropan-2-yl)-4-(4-methoxy-4-methylpiperidin-1-yl)-2-oxo-1,2-dihydro-1,7-naphthyridine-3-carbonitrile]
- CLint: 0.0020 mL · min^−1 · mg^−1 proteins
- k: 0.4444 min⁻¹
- Original drug residual % at 60 min: 91.9%
- half-life at 1 μM: 11.6 h

SMILES: COCCOc1cc2c(N3CCC(C)(OC)CC3)c(C#N)c(=O)[nH]c2cn1 [Compound 145, 4-(4-methoxy-4-methylpiperidin-1-yl)-6-(2-methoxyethoxy)-2-oxo-1,2-dihydro-1,7-naphthyridin-3-carbonitrile]
- CLint: 0.0038 mL · min^−1 · mg^−1 proteins
- k: 0.0019 min⁻¹
- Original drug residual % at 60 min: 88.2%
- half-life at 1 μM: 6.08 h

SMILES: COC1(C)CCN(c2c(C#N)c(=O)[nH]c3cnc(C)cc23)CC1 [Compound 158, 4-(4-methoxy-4-methylpiperidin-1-yl)-6-methyl-2-oxo-1,2-dihydro-1,7-naphthyridin-3-carbonitrile]
- CLint: 0.0026 mL · min^−1 · mg^−1 proteins
- k: 0.0013 min⁻¹
- Original drug residual % at 60 min: 92.6%
- half-life at 1 μM: 8.88 h
